Experimental data: US9783532B2, “Molecules having certain pesticidal utilities, and intermediates, compositions, and processes related thereto” (Dow AgroSciences LLC, priority 2013, dated 2017)

What was measured:
Type in all cases: in vivo
[1] = system: Beet Armyworm (Spodoptera exigua) ("BAW"); assay: Bioassay on beet armyworm (BAW), 128-well diet tray assay; settings: 168 h, 50 μg/cm^2 on artificial diet, second instar BAW larvae, 25° C., five to seven days, average of eight wells, read-out: BAW % Control (or Mortality) rating
How it was run: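 Percent mortality, averaged across eight wells, was read after five to seven days at 25° C. under 14:10 light-dark. Each well held one to five second-instar larvae on artificial diet that had been treated with 50 μg/cm^2 compound in 90:10 acetone-water and dried.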

[2] = system: Cabbage Looper (Trichoplusia ni) ("CL"); assay: Bioassay on cabbage looper (CL), 128-well diet tray assay; settings: 168 h, 50 μg/cm^2 on artificial diet, second instar CL larvae, 25° C., five to seven days, average of eight wells, read-out: CL % Control (or Mortality) rating
How it was run: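 Percent mortality, averaged across eight replicate wells, was read after five to seven days at 25 °C under a 14:10 photoperiod. Each well held one to five second-instar T. ni on diet carrying a dried 50 μg/cm^2 dose applied in acetone-water 90:10.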

[3] = system: Green Peach Aphid ("GPA") (Myzus persicae); assay: Bioassay on green peach aphid (GPA), foliar spray on cabbage seedlings; settings: Myzus persicae, foliar, 72 h; 200 ppm spray on infested cabbage seedlings, three days, Abbott corrected % control; read-out: GPA % Control (or Mortality) rating
Method: Certain molecules disclosed in this document were tested against GPA using procedures described in the following example. In the reporting of the results, the “GPA Rating Table” was used (See Table Section).
Cabbage seedlings grown in 3-inch pots, with 2-3 small (3-5 cm) true leaves, were used as test substrate. The seedlings were infested with 20-50 GPA (wingless adult and nymph stages) one day prior to chemical application. Four pots with individual seedlings were used for each treatment. Test compounds (2 mg) were dissolved in 2 mL of acetone/methanol (1:1) solvent, forming stock solutions of 1000 ppm test compound. The stock solutions were diluted 5× with 0.025% Tween 20 in water to obtain the solution at 200 ppm test compound. A hand-held aspirator-type sprayer was used for spraying a solution to both sides of […] leaves until runoff. Reference plants (solvent check) were sprayed with the diluent only containing 20% by volume of acetone/methanol (1:1) solvent. Treated plants were held in a holding room for three days at approximately 25° C. and ambient relative humidity (RH) prior to grading. Evaluation was conducted by counting the number of live aphids per plant under a microscope. Percent Control was measured by using Abbott's correction formula (W. S. Abbott, “A Method of Computing the Effectiveness of an Insecticide” J. Econ. Entomol. 18 (1925), pp. 265-267) as follows. Corrected % Control=100*(X−Y)/X • where • X=No. of live aphids on solvent check plants and • Y=No. of live aphids on treated plants

[4] = system: Yellow Fever Mosquito "YFM" (Aedes aegypti); settings: about 1 day-old larvae, 96-well plate, room temperature, 3 days, mortality
How it was run: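 About 1 day-old Aedes aegypti larvae in liver-powder water added to wells holding compound diluted from 4000 ppm DMSO stock with 90:10 water:acetone, 6 replicate plates. Plates kept covered at room temperature for 3 days. Wells scored for mortality and reported as rating categories.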

Row | Compound | mortality at 50 µg/cm2 [1] [%] | mortality at 50 µg/cm2 [2] [%] | mortality at 200 ppm [3] [%] | YFM % Control (or Mortality) rating [4]
1 | CC(C)c1ccccc1N1C(=O)CS/C1=N\C(=O)NCCc1ccc(-c2ncn(-c3ccc(OC(F)(F)F)cc3)n2)cc1 [F1, (Z)-1-(3-(2-isopropylphenyl)-4-oxothiazolidin-2-ylidene)-3-(4-(1-(4-(trifluoromethoxy)phenyl)-1H-1,2,4-triazol-3-yl)phenethyl)urea] | 50 to 100 | 50 to 100 | 0 | –
2 | Cc1ccc(C(C)C)c(NC(=S)NC(=O)NCCc2ccc(-c3ncn(-c4ccc(OC(F)(F)F)cc4)n3)cc2)c1 [F3, N-[5-methyl-2-isopropylphenyl]-N′-[2-(4-{1-[4-(trifluoromethoxy)-phenyl]-1H-1,2,4-triazol-3-yl}phenyl)ethyl]dicarbonimidothioic diamide] | 50 to 100 | 50 to 100 | 0 to 80 | –
3 | Cc1ccc(C(C)C)c(N2C(=O)CS/C2=N\C(=O)NC(C)Cc2ccc(-c3ncn(-c4ccc(OC(F)(F)F)cc4)n3)cc2)c1 (stereo not drawn) [F8, (Z)-1-(3-(2-isopropropyl-5-methylphenyl)-4-oxothiazolidin-2-ylidene)-3-(1-(4-(1-(4-(trifluoromethoxy)phenyl)-1H-1,2,4-triazol-3-yl)phenyl)propan-2-yl)urea] | 50 to 100 | 50 to 100 | 0 | –
4 | CC(C)c1ccccc1NC(=S)NC(=O)N/C=C/c1ccc(-c2ncn(-c3ccc(OC(F)(F)F)cc3)n2)cc1 [F11] | 50 to 100 | 50 to 100 | 0 | –
5 | CC(C)c1ccccc1N1C(=O)CS/C1=N\C(=O)N/C=C/c1ccc(-c2ncn(-c3ccc(OC(F)(F)F)cc3)n2)cc1 [F12] | 50 to 100 | 50 to 100 | 0 | –
6 | C/C(=C\NC(=O)/N=C1\SCC(=O)N1c1ccccc1C(C)C)c1ccc(-c2ncn(-c3ccc(OC(F)(F)F)cc3)n2)cc1 [F13, (Z)-1-(3-(2-isopropylphenyl)-4-oxothiazolidin-2-ylidene)-3-((E)-2-(4-(1-(4-(trifluoromethoxy)phenyl)-1H-1,2,4-triazol-3-yl)phenyl)prop-1-en-1-yl)urea] | 50 to 100 | 50 to 100 | 0 | –
7 | CC(C)c1ccccc1NC(=S)NC(=O)NC1CC1c1ccc(-c2ncn(-c3ccc(OC(F)(F)F)cc3)n2)cc1 (stereo not drawn) [F22] | 50 to 100 | 50 to 100 | 0 | –
8 | CCCc1ccccc1NC(=S)NC(=O)NC1CC1c1ccc(-c2ncn(-c3ccc(OC(F)(F)F)cc3)n2)cc1 (stereo not drawn) [F23] | 50 to 100 | 50 to 100 | 0 | –
9 | CCc1cccc(C)c1NC(=S)NC(=O)NC1CC1c1ccc(-c2ncn(-c3ccc(OC(F)(F)F)cc3)n2)cc1 (stereo not drawn) [F24, N-(2-ethyl-6-methylphenyl)-N′-[2-(4-(1-[4-(trifluoromethoxy)phenyl]-1H-1,2,4-triazol-3-yl)phenyl)cyclopropyl]dicarbonimidothioic diamide] | 50 to 100 | 50 to 100 | 0 | –
10 | Cc1cccc(C)c1NC(=S)NC(=O)NC1CC1c1ccc(-c2ncn(-c3ccc(OC(F)(F)F)cc3)n2)cc1 (stereo not drawn) [F25] | 50 to 100 | 50 to 100 | 0 | –
11 | CCc1ccc(C)cc1NC(=S)NC(=O)NC1CC1c1ccc(-c2ncn(-c3ccc(OC(F)(F)F)cc3)n2)cc1 (stereo not drawn) [F27, N-(2-ethyl-5-methylphenyl)-N′-[2-(4-{1-[4-(trifluoromethoxy)phenyl]-1H-1,2,4-triazol-3-yl}phenyl)cyclopropyl]dicarbonimidothioic diamide] | 50 to 100 | 50 to 100 | 0 | –
12 | Cc1ccc(C(C)C)c(NC(=S)NC(=O)NC2CC2c2ccc(-c3ncn(-c4ccc(OC(F)(F)F)cc4)n3)cc2)c1 (stereo not drawn) [F28, N-[5-methyl-2-(propan-2-yl)phenyl]-N-[2-(4-{1-[4-(trifluoromethoxy)phenyl]-1H-1,2,4-triazol-3-yl}phenyl)cyclopropyl]dicarbonimidothioic diamide] | 50 to 100 | 50 to 100 | 0 | –
13 | CCCc1ccccc1N1C(=O)CS/C1=N\C(=O)NC1CC1c1ccc(-c2ncn(-c3ccc(OC(F)(F)F)cc3)n2)cc1 (stereo not drawn) [F30, (Z)-1-(4-oxo-3-(2-propylphenyl)thiazolidin-2-ylidene)-3-(2-(4-(1-(4-(trifluoromethoxy)phenyl)-1H-1,2,4-triazol-3-yl)phenyl)cyclopropyl)urea] | 50 to 100 | 50 to 100 | 0 | –
14 | CCc1cccc(C)c1N1C(=O)CS/C1=N\C(=O)NC1CC1c1ccc(-c2ncn(-c3ccc(OC(F)(F)F)cc3)n2)cc1 (stereo not drawn) [F31, (Z)-1-(3-(2-ethyl-6-methylphenyl)-4-oxothiazolidin-2-ylidene)-3-(2-(4-(1-(4-(trifluoromethoxy)phenyl)-1H-1,2,4-triazol-3-yl)phenyl)cyclopropyl)urea] | 50 to 100 | 50 to 100 | 0 | –
15 | Cc1cccc(C)c1N1C(=O)CS/C1=N\C(=O)NC1CC1c1ccc(-c2ncn(-c3ccc(OC(F)(F)F)cc3)n2)cc1 (stereo not drawn) [F32, (Z)-1-(3-(2,6-dimethylphenyl)-4-oxothiazolidin-2-ylidene)-3-(2-(4-(1-(4-(trifluoromethoxy)phenyl)-1H-1,2,4-triazol-3-yl)phenyl)cyclopropyl)urea] | 50 to 100 | 50 to 100 | 0 | –
16 | CCc1ccc(C)cc1N1C(=O)CS/C1=N\C(=O)NC1CC1c1ccc(-c2ncn(-c3ccc(OC(F)(F)F)cc3)n2)cc1 (stereo not drawn) [F33, (Z)-1-(3-(2-ethyl-5-methylphenyl)-4-oxothiazolidin-2-ylidene)-3-(2-(4-(1-(4-(trifluoromethoxy)phenyl)-1H-1,2,4-triazol-3-yl)phenyl)cyclopropyl)urea] | 50 to 100 | 50 to 100 | 0 | –
17 | Cc1ccc(C(C)C)c(N2C(=O)CS/C2=N\C(=O)NCCC#Cc2ccc(-c3ncn(-c4ccc(OC(F)(F)F)cc4)n3)cc2)c1 [P160, (Z)-1-(3-(2-isopropyl-5-methylphenyl)-4-oxothiazolidin-2-ylidene)-3-(4-(4-(1-(4-(trifluoromethoxy)phenyl)-1H-1,2,4-triazol-3-yl)phenyl)but-3-yn-1-yl)urea] | 50 to 100 | 50 to 100 | – | B (More than 0-Less than 80)
18 | CC(C)c1ccccc1N1C(=O)CS/C1=N\C(=O)NCC(C)c1ccc(-c2ncn(-c3ccc(OC(F)(F)F)cc3)n2)cc1 (stereo not drawn) [P205, (Z)-1-(3-(2-isopropylphenyl)-4-oxothiazolidin-2-ylidene)-3-(2-(4-(1-(4-(trifluoromethoxy)phenyl)-1H-1,2,4-triazol-3-yl)phenyl)propyl)urea] | 50 to 100 | 50 to 100 | – | A (80-100)
19 | COc1ccc(C(C)C)c(N2C(=O)CS/C2=N\C(=O)NCC(C)c2ccc(-c3ncn(-c4ccc(OC(F)(F)F)cc4)n3)cc2)c1 (stereo not drawn) [P679, (Z)-1-(3-(2-isopropyl-5-methoxyphenyl)-4-oxothiazolidin-2-ylidene)-3-(2-(4-(1-(4-(trifluoromethoxy)phenyl)-1H-1,2,4-triazol-3-yl)phenyl)propyl)urea] | 50 to 100 | 50 to 100 | – | A (80-100)
